{"source": "patent US20260183274A1", "about": "“PDK1 REGULATORY COMPOUND AND COMPOSITION CONTAINING THE SAME” (PROVIBIO CO., LTD., priority 2024, published 2026)", "key": {"[1]": {"tested_on": "Human Kidney Cancer cell line, ACHN", "assay": "Relative cell viability CCK-8, ACHN", "type": "cell-based", "conditions": "48 hours", "method": "Similarly, human-derived cervical cancer cell line HeLa and renal cancer cell line ACHN, obtained from the Korean Cell Bank, were cultured in DMEM medium containing 10% FBS, 100 U/mL penicillin, and 100 μg/mL streptomycin.\n(§1) Following stabilization, the cells were harvested using Trypsin-EDTA treatment, centrifuged at 1,200 rpm for 3 minutes, the supernatant was removed, and the cells were resuspended in the same medium. They were then seeded into a 96-well plate (Costar 96-well cell culture plate, Corning) at 100 μL per well, and the conditions were adjusted as indicated in Table 5.\n(§2) The cells were cultured in a 5% CO2 incubator at 37° C. for 24 hours, and after stabilization of the cells, each plate was washed with 200 μL of PBS per well and treated with 50 μL of culture medium per well.\nThe compounds according to the present invention or the control group (DMSO) were added at concentrations of 0, 10, 30, and 50 μM in 50 μL aliquots to the plates, and the plates were cultured at 37° C. in a 5% CO2 incubator for 48 hours.\n(§3) After that, 10 μL of CCK-8 was added to each well, and the plate was incubated again at 37° C. in a 5% CO2 incubator for 2 hours.\n(§4) In other words, when the survival rate of untreated cells (DMSO) is set at 100%, the relative cell survival rate in each group treated with the drug at different concentrations is indicated."}, "[2]": {"tested_on": "Human multiple myeloma, KMS26", "assay": "Relative cell viability, KMS26", "type": "cell-based", "conditions": "KMS26 cells, relative to untreated cells", "method": "as §3, §4"}, "[3]": {"tested_on": "human lung fibroblasts MRC-5 cell lines", "assay": "TGF-β induced Collagen I expression in MRC-5 cells (Western blot)", "type": "cell-based", "conditions": "TGF-β 5 ng/ml; 0.5 μM and 1 μM; 24 hours; FIG. 44", "method": "To confirm that the compound of the present invention directly acts on fibrosis-related mechanisms, in vitro experiments were performed using human lung fibroblasts MRC-5 cell lines (Korea Cell Bank).\nFirst, MRC-5 cells were seeded at 5×10^3 cells per well in a 6-well plate and stabilized for 24 hours.\nSubsequently, experimental groups were established, including a control group, a group treated with TGF-β (5 ng/ml) alone, and groups treated with TGF-β and the compound GO88 from the present invention at concentrations of 0.5 μM and 1 μM, respectively.\nAfter treating each group with the drugs for 24 hours, the cell medium was removed, and the cells were washed twice with cold PBS. Then, RIPA lysis buffer containing phosphatase inhibitor and protease inhibitor was added to each group to extract proteins.\nThe extracted proteins were incubated at 4° C. for 30 minutes, then centrifuged at 13,000 rpm for 15 minutes, and the supernatant was collected. The total protein concentration was measured using the BCA protein quantification method.\nSubsequently, the proteins were separated by SDS-PAGE, transferred to a PVDF membrane, and Western blot analysis was performed.\nThe expression levels of Collagen I, a marker related to pulmonary fibrosis, were confirmed, with GAPDH used as an internal control."}, "[4]": {"tested_on": "Balb/c mice with induced pulmonary fibrosis", "assay": "Bleomycin-induced pulmonary fibrosis animal model", "type": "in vivo, mouse", "conditions": "vs BLM-treated group; for Collagen deposition (Masson's trichrome, Sirius red): FIG. 42; for Expression of α-SMA in lung tissue (IHC): FIG. 43", "text": "To evaluate the therapeutic efficacy of the compound according to the present invention against pulmonary fibrosis, an animal model of pulmonary fibrosis induced by bleomycin intratracheal administration was established.\nFor this purpose, 8-week-old male Balb/c mice were subjected to general anesthesia using an inhalation anesthetic (2-3% isoflurane in oxygen), followed by disinfection of the neck region, skin incision, and exposure of the trachea.\nBleomycin (Sigma-Aldrich, USA) was directly administered into the trachea at a concentration of 5 mg/kg in a solution of 100 μL.\nTwo days prior to Bleomycin administration, the compound of the present invention or the comparative drug was administered intraperitoneally at the specified concentration and dose, and the administration was continued once daily for a total of 14 days.\nThe experimental groups included Normal, Bleomycin alone (BLM), and BLM plus the compound of the present invention (BLM+GO88, 0.2 mg/kg).\nTen days later, the mice were euthanized humanely using carbon dioxide gas, the trachea was incised, and PBS was injected into the trachea to remove blood from the lungs.\nThe lung tissue washed with PBS was excised, fixed in 4% paraformaldehyde solution for 24 hours, and then paraffin blocks and tissue sections were prepared. The prepared sections were subjected to pathological analysis using H&E, Masson's trichrome, and Sirius red staining.\nAdditionally, immunohistochemical (IHC) staining was performed for α-SMA (α-smooth muscle actin), an indicator of lung fibroblast activation."}, "[5]": {"biological_target": "T1, full-length PDK1 (PDK1-FL) (Homo sapiens, UniProt O15530)", "T1 construct": "the full-length (PDK1-FL) protein of human-derived PDK1; inferred from Ni-NTA purification; made in house; host or cells: Sf9 insect cells, baculovirus expression system", "T1 sequence (O15530 whole entry)": "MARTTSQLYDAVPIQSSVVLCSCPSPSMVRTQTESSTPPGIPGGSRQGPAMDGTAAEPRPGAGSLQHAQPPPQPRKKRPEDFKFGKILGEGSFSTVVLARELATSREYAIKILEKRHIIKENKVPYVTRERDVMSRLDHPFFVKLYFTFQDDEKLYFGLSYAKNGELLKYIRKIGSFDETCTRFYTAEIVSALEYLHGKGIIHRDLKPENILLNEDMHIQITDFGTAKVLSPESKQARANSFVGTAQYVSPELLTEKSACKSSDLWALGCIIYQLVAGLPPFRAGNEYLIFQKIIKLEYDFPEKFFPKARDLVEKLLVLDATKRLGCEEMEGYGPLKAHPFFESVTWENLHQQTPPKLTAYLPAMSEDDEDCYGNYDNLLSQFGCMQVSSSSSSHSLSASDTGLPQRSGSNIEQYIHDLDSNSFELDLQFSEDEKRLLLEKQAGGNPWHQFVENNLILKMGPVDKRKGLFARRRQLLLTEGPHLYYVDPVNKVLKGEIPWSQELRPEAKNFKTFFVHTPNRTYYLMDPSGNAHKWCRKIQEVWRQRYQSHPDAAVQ", "assay": "Microscale Thermophoresis (MST) binding affinity, full-length PDK1", "method": "Microscale Thermophoresis (MST) analysis was performed to quantitatively measure the binding affinity between PDK1 protein and substrate peptides (PDKTide) or the company-developed low-molecular-weight compound (GO88).\nThe target proteins were the full-length (PDK1-FL) protein of human-derived PDK1 and the Protein Kinase Domain (PKD) fragment, which were expressed using a baculovirus expression system in insect cell lines (Sf9).\nThe purity of the purified proteins was confirmed by SDS-PAGE and Coomassie Brilliant Blue staining.\nThe purified protein was labeled with a fluorescent label using the Monolith NT™ RED-NHS Protein Fluorescent Labeling Kit (NanoTemper).\nSpecifically, 20 μM of the protein was dissolved in PBS (pH 7.4) buffer, mixed with the fluorescent reagent, and reacted at room temperature under dark conditions for 30 minutes. The mixture was then buffered with MST analysis buffer (50 mM HEPES, 150 mM NaCl, 1 mM DTT, 0.05% Tween-20, pH 7.5). […]\nThe reaction samples were injected into an MST-specific capillary (NanoTemper) and analyzed using a Monolith NT.115 device (NanoTemper) under laser intensity conditions. […]\nThe measured data were analyzed using MO.Affinity Analysis software (NanoTemper), and the dissociation constant (Kd) was calculated from the binding curve."}, "[6]": {"tested_on": "Human Gastric cancer cell, SNU-719", "assay": "Relative cell viability CCK-8, SNU-719", "type": "cell-based", "conditions": "48 hours", "method": "Human-derived breast cancer cell line MCF-7, human-derived lung cancer cell line A549, human-derived colorectal cancer cell line HCT-116, human pancreatic cancer cell line AsPC-1, glioblastoma cell line A172, and melanoma cell line Malme-3M were obtained from the Korean Cell Bank. gastric cancer cell line SNU-719, and bladder cancer cell line T24 were cultured in RPMI-1640 medium containing 10% FBS.\nas §1, §2, §3, §4"}}}
{"smiles": "Nc1ncccc1C(=O)NCCCCCCCCCCCCN1CCNCC1", "note": "[Compound 5, 2-Amino-N-(12-(piperazin-1-yl)dodecyl)-nicotinamide]", "values": [{"measurement": "viability at 1 µM", "setting": "[1]", "result": 29.5, "unit": "%"}, {"measurement": "viability at 10 µM", "setting": "[1]", "result": 30, "unit": "%"}, {"measurement": "viability at 30 µM", "setting": "[1]", "result": 29.2, "unit": "%"}, {"measurement": "viability at 50 µM", "setting": "[1]", "result": 28.3, "unit": "%"}]}
{"smiles": "CC1(C)CN(CCCCCCCCCCCCC(=O)Nc2nc(N)c3[nH]cnc3n2)CCO1", "note": "[Compound 11, 12-[4-(2,2-dimethylmorpholin-4-yl)]dodecyl-N-(6-aminopurine-2-yl) carboxamide]", "values": [{"measurement": "Relative cell viability (%)", "setting": "[2]; 1 μM", "result": 31.19, "unit": "%"}]}
{"smiles": "Nc1ncccc1C(=O)NCCCCCCCCCCCCN1CCNCC1", "note": "[Compound 14, 2-Amino-N-(12-(piperazin-1-yl)dodecyl)nicotinamide]", "values": [{"measurement": "Protein expression of Collagen I", "setting": "[3]", "result": "inhibited in a concentration-dependent manner"}, {"measurement": "Collagen deposition (Masson's trichrome, Sirius red)", "setting": "[4]", "result": "significantly reduced"}, {"measurement": "Expression of α-SMA in lung tissue (IHC)", "setting": "[4]", "result": "significantly suppressed"}, {"measurement": "Kd", "setting": "[5]; FIG. 48, read-out: Dissociation constant (Kd), full-length PDK1", "result": "~58.4", "unit": "nM"}, {"measurement": "Binding affinity of full-length PDK1 compared to the PKD fragment", "setting": "[5]; ratio of Kd values", "result": "approximately six times stronger binding affinity"}, {"measurement": "viability at 1 µM", "setting": "[6]; 1 μM", "result": 49.9, "unit": "%"}, {"measurement": "viability at 10 µM", "setting": "[6]; 10 μM", "result": 47.8, "unit": "%"}, {"measurement": "viability at 30 µM", "setting": "[6]; 30 μM", "result": 44.4, "unit": "%"}, {"measurement": "viability at 50 µM", "setting": "[6]; 50 μM", "result": 45.5, "unit": "%"}]}
{"smiles": "Nc1nc(NC(=O)CCCCCCCCCCCCN2CCN(CCO)CC2)nc2nc[nH]c12", "note": "[Compound 15, 12-[4-(2-hydroxyethyl)piperazin-1-yl]dodecyl-N-(6-aminopurine-2-yl) carboxamide]", "values": [{"measurement": "viability at 1 µM", "setting": "[1]", "result": 31.7, "unit": "%"}, {"measurement": "viability at 10 µM", "setting": "[1]", "result": 30, "unit": "%"}, {"measurement": "viability at 30 µM", "setting": "[1]", "result": 30.6, "unit": "%"}, {"measurement": "viability at 50 µM", "setting": "[1]", "result": 30.3, "unit": "%"}]}
{"smiles": "Nc1ncccc1C(=O)NCCCCCCCCCCCCF", "note": "[Compound 57, 2-Amino-N-(12-fluoro-dodecyl)-nicotinamide]", "values": [{"measurement": "Collagen deposition (Masson's trichrome, Sirius red)", "setting": "[4]", "result": "significantly reduced"}, {"measurement": "Expression of α-SMA in lung tissue (IHC)", "setting": "[4]", "result": "significantly suppressed"}, {"measurement": "viability at 10 µM", "setting": "[2]; Homo sapiens, KMS-26, 10 μM", "result": 44.4, "unit": "%"}, {"measurement": "viability at 30 µM", "setting": "[2]; Homo sapiens, KMS-26, 30 μM", "result": 43.1, "unit": "%"}]}
